Tested on: Mycobacterium smegmatis
Test: In vitro Mycobacterium smegmatis growth inhibition assay (suspension turbidity, 96 hours)
Type: cell-based
Details: for % of Celular Growth at 96 hours: Mycobacterium smegmatis; for IC50: concentration to inhibit 50% of Mycobacterium smegmatis growth, four parameter curve fit; for inhibitory activity against Mycobacterium smegmatis growth (in words, compared with RMP): compared with the active control RMP

CO[C@H]1/C=C/O[C@@]2(C)Oc3c(C)c(O)c4c(O)c(c(/C=N/N5CCN(C)CC5)c(O)c4c3C2=O)NC(=O)/C(C)=C\C=C\[C@H](C)[C@H](O)[C@@H](C)[C@@H](O)[C@@H](C)[C@H](OC(C)=O)[C@@H]1C [Rifampicin, reference compound] was tested, and the “% of Celular Growth at 96 hours” value (concentration 1.23 μM) was 82.55%, the “% of Celular Growth at 96 hours” value (concentration 3.70 μM) was 81.40% and the “% of Celular Growth at 96 hours” value (concentration 11.11 μM) was 90.62%. For the same compound, the “% of Celular Growth at 96 hours” value (concentration 33.33 μM) was 58.04%, the “% of Celular Growth at 96 hours” value (concentration 100.00 μM) was 22.26% and the IC50 (Mycolicibacterium smegmatis) was 24.8 µM.

C(=NNc1ccccn1)c1cccs1 [N-pyridin-2-yl-N′-thiophen-2-ylmethylene-hydrazine] was tested, and the “inhibitory activity against Mycobacterium smegmatis growth (in words, compared with RMP)” value was “desired pharmacological activity”.

For “3,5-dibromo-2-hydroxybenzaldehyde (2-pyridinyl)hydrazine [Compound 42]”, the “% of Celular Growth at 96 hours” value (concentration 1.23 μM) was 110.06%, the “% of Celular Growth at 96 hours” value (concentration 3.70 μM) was 104.48% and the “% of Celular Growth at 96 hours” value (concentration 11.11 μM) was 98.17%. The “% of Celular Growth at 96 hours” value (concentration 33.33 μM) was 41.52%, the “% of Celular Growth at 96 hours” value (concentration 100.00 μM) was 31.91% and the “inhibitory activity against Mycobacterium smegmatis growth (in words, compared with RMP)” value was “better IC50 values than RMP”. For the same compound, the “inhibitory activity against Mycobacterium smegmatis growth (in words, compared with RMP)” value (listed as compound 42) was “superior inhibitory activity against Mycobacterium smegmatis than the prior art compound RMP” and the IC50 was 15.2 µM.

For Oc1ccc(Br)cc1C=NNc1ccccn1 [Compound 70, 5-bromo-2-hydroxybenzaldehyde-2pyridinilhydrazone], the “% of Celular Growth at 96 hours” value (concentration 1.23 μM) was 95.9%, the “% of Celular Growth at 96 hours” value (concentration 3.70 μM) was 96.6% and the “% of Celular Growth at 96 hours” value (concentration 11.11 μM) was 80.0%. The “% of Celular Growth at 96 hours” value (concentration 33.33 μM) was 44.2%, the “% of Celular Growth at 96 hours” value (concentration 100.00 μM) was 38.9% and the “inhibitory activity against Mycobacterium smegmatis growth (in words, compared with RMP)” value was “better IC50 values than RMP”. The “inhibitory activity against Mycobacterium smegmatis growth (in words, compared with RMP)” value (listed as N-pyridin-2-yl-N′-5-bromo-2-hydroxyphenylmethylene-hydrazine) was “desired pharmacological activity” and the IC50 was 13.9 µM.

In the case of “2-hydroxy-5-methylbenzaldehyde-(2-pyridinyl)hydrazine [Compound 61]”, the “% of Celular Growth at 96 hours” value (concentration 1.23 μM) is reported as 75.35%, the “% of Celular Growth at 96 hours” value (concentration 3.70 μM) is reported as 69.76% and the “% of Celular Growth at 96 hours” value (concentration 11.11 μM) is reported as 83.84%. For the same compound, the “% of Celular Growth at 96 hours” value (concentration 33.33 μM) was 20.08%, the “% of Celular Growth at 96 hours” value (concentration 100.00 μM) was 24.45% and the “inhibitory activity against Mycobacterium smegmatis growth (in words, compared with RMP)” value was “better IC50 values than RMP”. The “inhibitory activity against Mycobacterium smegmatis growth (in words, compared with RMP)” value (listed as N-pyridin-2-yl-N′-5-methyl-2-hydroxyphenylmethylene-hydrazine) was “desired pharmacological activity” and the IC50 was 13.5 µM.

Reference: US9593103B2, “Pyridyl hydrazones for the treatment of tuberculosis and related diseases” (TECNIMEDE SOCIEDADE TECNICO-MEDICINAL S.A., priority 2012, dated 2017)
